Values of other authors as cited in patent US6004532A, “Formulation for Tin-^117m /diethylenetriaminepentaacetic acids” (Brookhaven Science Associates, priority 1998, dated 1999).

How the values were obtained:
bone marrow = settings: for contamination and radiation cystitis risk: therapeutic doses

O=P([O-])(O)CN(CCN(CP(=O)([O-])O)CP(=O)(O)O)CP(=O)([O-])O.[153Sm+3] [^153 Sm-EDTMP, ^153 Sm ethylenediaminetetramethylenephosphonate]
duration of pain relief (bone pain; human, in vivo): four to forty
onset of clinical benefit / pain relief (bone pain; human, in vivo): two
onset of clinical benefit / symptom relief (frequently) (bone pain; human, in vivo): ≤ 48 h
urinary excretion of radioactivity (therapeutic doses 35 to 210 mCi): large amounts of radioactivity can be excreted in the patient's urine
myelosuppression (bone marrow; human, in vivo): Reversible myelosuppression
contamination and radiation cystitis risk (bone marrow): creating contamination risks and potentially causing radiation cystitis

^117m Sn (Sn^4+) diethylenetriaminepentaacetic acid [^117m Sn (Sn^4+) DTPA]
palliation of bone pain (bone pain; Phase II pilot study, Atkins et al. (1995)): palliation of bone pain
relief of bone pain in humans (bone pain; particular efficacy at about 9 to about 25 mCi per 70 kg, WO 95/29706): dose-dependent relief of bone pain
bone uptake and retention compared with ^32 P orthophosphate, ^153 Sm-EDTMP, ^186 Re-HEDP, and ^89 SrCl2 (human, in vivo): higher bone uptake and retention
contamination and radiation cystitis risk (bone marrow): less risk of contamination and radiation cystitis

O=[32P](O)(O)O [^32 P orthophosphate]
onset of pain relief (bone pain; pretreatment with androgen, after administration): five to fourteen
